Assay results as given in ChEMBL document CHEMBL1201862, “PubChem BioAssay data set” (2004).
Active and inactive are the calls of the source.

Assays:
[1] = target: T1, Aminopeptidase N (Plasmodium falciparum FcB1/Columbia, UniProt O96935); experiment: malaria alanyl aminopeptidase activity blockers – biochemical, fluorogenic H-Leu-NHMec substrate, 1536-well (AID 1445); design: species or system Plasmodium falciparum 3D7, 3D7
T1 sequence (O96935 whole entry): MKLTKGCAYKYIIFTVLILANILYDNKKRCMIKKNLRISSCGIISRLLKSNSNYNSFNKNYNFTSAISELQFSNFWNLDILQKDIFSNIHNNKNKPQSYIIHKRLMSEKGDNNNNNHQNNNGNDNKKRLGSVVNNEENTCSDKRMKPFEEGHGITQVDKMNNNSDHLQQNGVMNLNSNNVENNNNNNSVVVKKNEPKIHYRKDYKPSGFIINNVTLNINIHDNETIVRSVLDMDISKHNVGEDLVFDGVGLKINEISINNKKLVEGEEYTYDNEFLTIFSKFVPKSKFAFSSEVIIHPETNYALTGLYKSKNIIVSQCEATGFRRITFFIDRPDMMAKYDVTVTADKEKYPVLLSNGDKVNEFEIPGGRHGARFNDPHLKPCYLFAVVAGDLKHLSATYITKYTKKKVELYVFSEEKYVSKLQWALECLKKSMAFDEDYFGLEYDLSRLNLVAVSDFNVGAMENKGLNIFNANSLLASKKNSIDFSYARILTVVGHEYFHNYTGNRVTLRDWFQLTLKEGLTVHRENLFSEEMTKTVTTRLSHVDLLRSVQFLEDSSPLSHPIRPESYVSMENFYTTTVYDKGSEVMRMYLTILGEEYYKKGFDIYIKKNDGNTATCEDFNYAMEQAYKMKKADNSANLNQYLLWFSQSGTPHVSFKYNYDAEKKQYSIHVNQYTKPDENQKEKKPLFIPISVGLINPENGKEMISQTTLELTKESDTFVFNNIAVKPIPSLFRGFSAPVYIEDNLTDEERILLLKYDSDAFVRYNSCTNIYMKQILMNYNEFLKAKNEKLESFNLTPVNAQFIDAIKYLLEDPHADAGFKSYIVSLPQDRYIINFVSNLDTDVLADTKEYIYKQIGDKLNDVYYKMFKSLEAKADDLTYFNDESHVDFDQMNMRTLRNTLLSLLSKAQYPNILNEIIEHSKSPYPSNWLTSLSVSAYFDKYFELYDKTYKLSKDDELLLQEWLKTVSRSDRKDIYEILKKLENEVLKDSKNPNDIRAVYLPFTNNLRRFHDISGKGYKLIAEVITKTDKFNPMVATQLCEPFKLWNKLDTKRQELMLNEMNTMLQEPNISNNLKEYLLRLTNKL

[2] = target: Genome polyprotein (dengue virus type 2, UniProt P29990); experiment: flavivirus cap methylation enzyme inhibition – biochemical, confirmation dose response, primary screen (AID 588689); type: functional
Genome polyprotein, sequence (P29990 2492-3391 limits assumed): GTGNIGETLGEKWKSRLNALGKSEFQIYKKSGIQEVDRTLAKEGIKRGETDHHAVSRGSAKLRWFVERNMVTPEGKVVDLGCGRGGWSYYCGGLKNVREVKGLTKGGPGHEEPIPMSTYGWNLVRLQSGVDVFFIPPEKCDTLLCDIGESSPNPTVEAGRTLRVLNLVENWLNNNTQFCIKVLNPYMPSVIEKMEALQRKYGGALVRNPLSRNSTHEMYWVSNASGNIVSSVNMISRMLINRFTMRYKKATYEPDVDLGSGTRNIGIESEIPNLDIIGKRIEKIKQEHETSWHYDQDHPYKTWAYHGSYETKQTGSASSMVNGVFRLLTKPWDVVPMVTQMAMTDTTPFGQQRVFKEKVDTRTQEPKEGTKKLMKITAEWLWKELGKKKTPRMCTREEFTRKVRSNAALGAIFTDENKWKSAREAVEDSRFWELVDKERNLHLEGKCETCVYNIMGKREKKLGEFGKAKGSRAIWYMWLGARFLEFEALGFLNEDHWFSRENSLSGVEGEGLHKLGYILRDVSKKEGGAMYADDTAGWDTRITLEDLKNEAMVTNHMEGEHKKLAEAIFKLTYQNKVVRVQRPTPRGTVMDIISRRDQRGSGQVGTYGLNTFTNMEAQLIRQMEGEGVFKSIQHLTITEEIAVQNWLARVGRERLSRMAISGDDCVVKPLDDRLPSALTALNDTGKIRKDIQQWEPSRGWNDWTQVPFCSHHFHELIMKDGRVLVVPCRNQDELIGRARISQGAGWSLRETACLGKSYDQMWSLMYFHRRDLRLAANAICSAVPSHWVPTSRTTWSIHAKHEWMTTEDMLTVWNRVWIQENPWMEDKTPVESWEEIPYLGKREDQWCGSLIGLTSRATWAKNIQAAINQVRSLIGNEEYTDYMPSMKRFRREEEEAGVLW

[3] = target: Cytochrome P450 3A4 (Homo sapiens, UniProt P08684); details: Potency;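 further: confirmatory qHTS run detecting inhibitors and substrates of CYP3A4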
Cytochrome P450 3A4, sequence (P08684 whole entry): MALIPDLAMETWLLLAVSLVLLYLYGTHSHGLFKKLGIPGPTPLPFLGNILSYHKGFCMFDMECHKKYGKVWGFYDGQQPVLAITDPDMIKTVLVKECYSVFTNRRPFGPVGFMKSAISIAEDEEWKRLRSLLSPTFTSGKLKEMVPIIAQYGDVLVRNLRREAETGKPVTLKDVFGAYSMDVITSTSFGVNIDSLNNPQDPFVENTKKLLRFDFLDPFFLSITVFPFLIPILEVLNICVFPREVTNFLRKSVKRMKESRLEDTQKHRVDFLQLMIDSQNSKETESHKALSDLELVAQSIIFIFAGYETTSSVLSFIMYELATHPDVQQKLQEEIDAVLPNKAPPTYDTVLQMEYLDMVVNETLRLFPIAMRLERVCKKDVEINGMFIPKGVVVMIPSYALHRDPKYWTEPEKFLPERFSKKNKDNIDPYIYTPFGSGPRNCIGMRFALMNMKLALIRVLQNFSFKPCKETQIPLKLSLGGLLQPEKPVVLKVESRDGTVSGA

[4] = target: T2, High affinity choline transporter 1 (Homo sapiens, UniProt Q9GZV3); experiment: human choline transporter blockers, potency – cell-based, 5-point CRC, membrane potential dye, dose response (AID 504840); type: functional
T2 sequence (Q9GZV3 whole entry): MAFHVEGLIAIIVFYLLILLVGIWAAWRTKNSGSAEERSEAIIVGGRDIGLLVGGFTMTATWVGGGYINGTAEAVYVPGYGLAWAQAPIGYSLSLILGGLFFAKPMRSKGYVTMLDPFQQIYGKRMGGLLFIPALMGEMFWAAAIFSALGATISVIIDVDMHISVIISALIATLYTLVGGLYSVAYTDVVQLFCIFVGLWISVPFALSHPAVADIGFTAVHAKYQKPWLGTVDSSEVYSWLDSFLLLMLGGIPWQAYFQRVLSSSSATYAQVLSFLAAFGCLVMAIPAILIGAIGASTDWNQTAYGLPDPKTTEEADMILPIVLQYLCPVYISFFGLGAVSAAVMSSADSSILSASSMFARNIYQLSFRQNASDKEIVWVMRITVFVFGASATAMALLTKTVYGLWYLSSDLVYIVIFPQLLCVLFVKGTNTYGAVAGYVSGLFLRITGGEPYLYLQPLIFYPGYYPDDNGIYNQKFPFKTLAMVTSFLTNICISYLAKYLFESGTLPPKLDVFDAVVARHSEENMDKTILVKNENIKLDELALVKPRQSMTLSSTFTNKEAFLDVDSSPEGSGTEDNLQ

[5] = tested on: Streptococcus; experiment: GAS UMAA2166 growth inhibition – luminescence, BacTiterGlo, counter-screen for streptokinase expression inhibitor project, dose response (AID 1915); type: functional, organism-based;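 further: potency for reduction of bacterial viability or growth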
[6] = tested on: Streptococcus sp. 'group A'; experiment: Streptococcus pyogenes SK(-)GAS viability under kanamycin – luminescence, BacTiterGlo, confirmation, counter-screen for streptokinase expression inhibitor project, dose response (AID 1900); type: functional, organism-based
[7] = viability loss in THP-1 monocytes – THP-1 cells, cytotoxicity control for Vif-APOBEC3G degradation inhibitor project, dose response (AID 1117359); type: functional; details: THP-1
[8] = cells; type: functional, cell-based
[9] = target: T3, Fatty acid synthase (Homo sapiens, UniProt P49327); experiment: inhibition of human FAS-TE enzyme activity – biochemical, kinetic fluorescence intensity, dose response (AID 624326); type: functional;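 further: rate of fluorescence rise from hydrolysis of a fluorogenic O-methyl fluorescein ester substrate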
T3 sequence (P49327 whole entry): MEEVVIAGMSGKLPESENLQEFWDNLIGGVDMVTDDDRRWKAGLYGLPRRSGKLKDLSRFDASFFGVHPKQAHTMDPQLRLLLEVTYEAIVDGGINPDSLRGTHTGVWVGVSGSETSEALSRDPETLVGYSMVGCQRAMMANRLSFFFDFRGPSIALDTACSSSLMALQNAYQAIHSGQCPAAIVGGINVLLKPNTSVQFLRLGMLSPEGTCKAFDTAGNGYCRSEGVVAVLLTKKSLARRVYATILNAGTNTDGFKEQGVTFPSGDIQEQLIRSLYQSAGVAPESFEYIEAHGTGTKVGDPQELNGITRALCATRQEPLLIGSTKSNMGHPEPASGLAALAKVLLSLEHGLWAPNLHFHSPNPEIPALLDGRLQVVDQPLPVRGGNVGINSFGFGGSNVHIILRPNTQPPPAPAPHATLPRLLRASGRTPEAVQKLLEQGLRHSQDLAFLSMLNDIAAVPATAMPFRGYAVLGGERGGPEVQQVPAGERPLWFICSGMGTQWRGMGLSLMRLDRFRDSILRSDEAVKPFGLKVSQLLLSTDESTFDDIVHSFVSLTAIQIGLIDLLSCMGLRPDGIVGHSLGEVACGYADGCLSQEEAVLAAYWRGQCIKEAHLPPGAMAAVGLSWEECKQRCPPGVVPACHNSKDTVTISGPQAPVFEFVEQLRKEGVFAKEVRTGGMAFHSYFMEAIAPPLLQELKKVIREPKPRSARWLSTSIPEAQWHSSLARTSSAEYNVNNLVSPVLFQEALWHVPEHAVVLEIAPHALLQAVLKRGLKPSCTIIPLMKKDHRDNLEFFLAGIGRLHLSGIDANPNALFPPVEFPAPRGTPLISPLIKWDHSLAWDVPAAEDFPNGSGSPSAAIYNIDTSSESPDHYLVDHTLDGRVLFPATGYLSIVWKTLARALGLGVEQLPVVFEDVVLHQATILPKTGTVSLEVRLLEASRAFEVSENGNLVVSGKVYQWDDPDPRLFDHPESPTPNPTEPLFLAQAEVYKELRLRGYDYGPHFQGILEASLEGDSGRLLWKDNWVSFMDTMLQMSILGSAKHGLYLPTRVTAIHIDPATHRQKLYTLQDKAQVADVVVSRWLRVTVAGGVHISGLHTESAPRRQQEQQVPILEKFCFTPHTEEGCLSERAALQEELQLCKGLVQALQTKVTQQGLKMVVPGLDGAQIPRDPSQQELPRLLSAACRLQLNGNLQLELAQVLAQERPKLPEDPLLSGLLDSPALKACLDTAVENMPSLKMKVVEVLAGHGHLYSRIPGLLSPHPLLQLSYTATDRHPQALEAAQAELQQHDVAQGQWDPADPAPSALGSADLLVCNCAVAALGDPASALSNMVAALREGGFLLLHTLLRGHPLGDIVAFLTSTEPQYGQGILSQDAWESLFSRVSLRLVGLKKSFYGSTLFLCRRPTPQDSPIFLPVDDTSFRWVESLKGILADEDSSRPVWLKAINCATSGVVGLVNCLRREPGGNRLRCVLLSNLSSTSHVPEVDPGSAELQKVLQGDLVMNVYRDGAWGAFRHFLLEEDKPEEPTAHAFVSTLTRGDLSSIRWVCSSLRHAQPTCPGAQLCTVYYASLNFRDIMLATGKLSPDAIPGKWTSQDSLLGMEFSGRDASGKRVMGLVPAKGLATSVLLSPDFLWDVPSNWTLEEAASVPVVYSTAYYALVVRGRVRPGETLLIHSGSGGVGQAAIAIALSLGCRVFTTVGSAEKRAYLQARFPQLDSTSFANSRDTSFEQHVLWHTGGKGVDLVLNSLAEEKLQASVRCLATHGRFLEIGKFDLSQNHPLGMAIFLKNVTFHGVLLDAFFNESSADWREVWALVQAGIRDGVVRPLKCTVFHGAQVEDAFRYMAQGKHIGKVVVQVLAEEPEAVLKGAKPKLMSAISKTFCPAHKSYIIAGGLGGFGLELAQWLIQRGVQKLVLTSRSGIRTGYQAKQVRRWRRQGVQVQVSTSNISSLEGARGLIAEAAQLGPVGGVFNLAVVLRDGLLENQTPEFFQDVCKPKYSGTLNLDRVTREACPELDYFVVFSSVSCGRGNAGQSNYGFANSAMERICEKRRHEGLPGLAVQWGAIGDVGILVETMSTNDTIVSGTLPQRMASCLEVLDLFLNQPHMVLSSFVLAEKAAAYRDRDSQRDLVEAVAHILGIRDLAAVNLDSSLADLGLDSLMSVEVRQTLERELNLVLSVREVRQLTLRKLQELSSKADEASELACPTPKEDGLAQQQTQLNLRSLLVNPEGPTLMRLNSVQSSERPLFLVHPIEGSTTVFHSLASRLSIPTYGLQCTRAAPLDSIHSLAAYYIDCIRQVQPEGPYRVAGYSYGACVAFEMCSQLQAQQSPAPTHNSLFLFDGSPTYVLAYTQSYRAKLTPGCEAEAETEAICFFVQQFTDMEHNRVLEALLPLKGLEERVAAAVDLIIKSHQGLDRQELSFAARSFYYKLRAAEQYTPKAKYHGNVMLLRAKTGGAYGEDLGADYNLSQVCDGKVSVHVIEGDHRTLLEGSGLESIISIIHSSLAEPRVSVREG

[10] = cells; type: functional, cell-based; remark: listed apart in the source
[11] = target: Nonstructural protein 1 (Influenza A virus, UniProt Q194T2); type: functional, Influenza A virus (A/California/07/2009(H1N1))
Nonstructural protein 1, sequence (Q194T2 whole entry): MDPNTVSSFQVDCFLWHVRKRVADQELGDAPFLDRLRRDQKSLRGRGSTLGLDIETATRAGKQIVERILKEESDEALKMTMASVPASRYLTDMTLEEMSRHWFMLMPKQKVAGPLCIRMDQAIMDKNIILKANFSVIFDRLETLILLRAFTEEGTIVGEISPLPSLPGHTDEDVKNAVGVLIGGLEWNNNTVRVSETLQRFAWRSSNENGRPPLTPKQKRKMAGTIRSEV

[12] = target: T3, Fatty acid synthase; experiment: inhibition of human FAS-TE enzyme activity – biochemical, endpoint fluorescence intensity, uHTS hits, dose response (AID 624327); type: functional;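 further: fluorescence from hydrolysis of an O-methyl fluorescein acyl ester substrate by the enzyme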

SMILES | IC50 [1] | AC50 [3] | other results
Cc1cc(NS(=O)(=O)c2ccc(NC(=O)CSc3nc(O)c4c(C)c(C)sc4n3)cc2)no1 | 35.8 µM (active) |  | IC50 [2]: 81.9 µM (active)
Oc1ccc2c(c1)OCO2 |  | 15.8 µM (inconclusive) | 
O=C(CN1C(=O)S/C(=C\c2cccc(Cl)c2)C1=O)NCCCn1ccnc1 |  |  | IC50 [4]: 20.9 µM (active)
Cc1cccc(C(=O)NC2CCN(C(=S)NCc3ccco3)CC2)c1 | 113 µM (active) |  | 
CCCN=C1C(=O)C2=C(C(O)=C1C)N1CC3NC3[C@@]1(OC)C2COC(N)=O (some centres not stated) |  |  | EC50 [5]: 0.153 µM (active); EC50 [6]: < 0.06 µM (active); CC50 [7]: 1.52 µM (active)
O=C(Cn1cnc([N+](=O)[O-])n1)N/N=C/c1cc(Cl)ccc1O | 13.3 µM (active) |  | EC50 [8]: 14.5 µM (active); IC50 [9]: 2.94 µM (active); EC50 [10]: > 350 µM (not active); IC50 [11]: 12.3 µM (active); IC50 [12]: 1.22 µM (active)
O=C(NC1CCN(C(=S)NCc2ccco2)CC1)c1cccc(F)c1 | 79.9 µM (active) |  | 
Cc1ccc(/C=C2\SC(NS(=O)(=O)c3cccs3)=NC2=O)cc1 | 33.1 µM (active) |  | IC50 [2]: 71.5 µM (active)
CCOC(=O)C(Cc1ccc(O)cc1)NC(C)=O (configuration not stated) [ACETYL TYROSINE ETHYL ESTER] |  | 25.1 µM (inconclusive) | 
CCCn1c(C)nc2c(N(CCOC)CCOC)nc(C)nc21 |  | 15.8 µM (inconclusive) | 
CC(C)(C)CC(C)(C)c1ccc(OCCO)cc1 [TRITON X] |  | 31.6 µM (inconclusive) | 
Cc1ccccc1N(CC(=O)NC(C)(C)C)C(=O)C[S+]([O-])CC(=O)Nc1ccc2c(c1)OCO2 (configuration not stated) | 79.3 µM (active) |  | 
COCCNC(=O)C1(CC(C)C)C=CCN1C(=O)c1ccccc1 (configuration not stated) |  | 20 µM (inconclusive) | 
